In patent publication US12606561B2, “Substituted pyrazolo[1,5-a][1,3,5]triazines as CDK inhibitors” (QURIENT CO., LTD., priority 2018, dated 2026):
Where two headings read alike, the source gives them in different places.

What was measured:
Assay in all cases: In vitro IC50 profile for CDKs family kinase (33PanQinase Activity Assay, ProQinase)
Format in all cases: biochemical
[1] = target: 28 CDKs family protein kinases (Homo sapiens, UniProt Q00535); parameters: fused on or other part: GST or His tag; details: CDK5/p25NCK; read-out: CDK7 selectivity profile in CDKs family, IC50
28 CDKs family protein kinases (Homo sapiens, UniProt Q00535), sequence (Q00535 whole entry, the tested form may be a part): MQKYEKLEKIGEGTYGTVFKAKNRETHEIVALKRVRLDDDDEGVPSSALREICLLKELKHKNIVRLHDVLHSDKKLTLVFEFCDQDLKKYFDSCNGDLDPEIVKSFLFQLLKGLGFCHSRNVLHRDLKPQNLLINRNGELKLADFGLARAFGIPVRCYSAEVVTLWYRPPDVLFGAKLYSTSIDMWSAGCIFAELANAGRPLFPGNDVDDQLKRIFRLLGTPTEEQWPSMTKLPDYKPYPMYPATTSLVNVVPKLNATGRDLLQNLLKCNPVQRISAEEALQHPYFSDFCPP
Experimental: The IC50 profile of compound 11 was determined using 28 CDKs family protein kinases through ProQinase GmbH (Freiburg, Germany). All the protocol and materials had been provided by ProQinase GmbH. Briefly, in the process, 90 μl H2O were added to each well of a compound dilution plate. To minimize potential precipitation, the H2O was added to the plate only a few minutes before the transfer of the compound solutions into the assay plates. The plate was shaken thoroughly, resulting in a “compound dilution plate/10% DMSO”. The compound dilution plate(s) were discarded at the end of the working day. For the assays (see below), 5 μl solution from each well of the compound dilution plate were transferred into the assay plates. The final volume of the assay was 50 μl. […] Kinases from external vendors, Carna Biosciences Inc.; Invitrogen Corp.; and Millipore Corp., were expressed, purified and quality-controlled by virtue of the vendors readings. […] Incorporation of ^33Pi was determined with a microplate scintillation counter (Microbeta, Wallac). […] The residual activity (in %) for each well of a particular plate was calculated by using the following formula: Res. Activity (%)=100×[(cpm of compound−low control)/(high control−low control)].

[2] = target: T1, 28 CDKs family protein kinases (Homo sapiens, UniProt Q8IZL9); details: read-out: CDK7 selectivity profile in CDKs family, IC50
T1 construct: purchased ProQinase GmbH; host or cells: Sf9 insect cells or E. coli
Experimental: (§1) The IC50 profile of compound 11 was determined using 28 CDKs family protein kinases through ProQinase GmbH (Freiburg, Germany). All the protocol and materials had been provided by ProQinase GmbH. Briefly, in the process, 90 μl H2O were added to each well of a compound dilution plate. To minimize potential precipitation, the H2O was added to the plate only a few minutes before the transfer of the compound solutions into the assay plates. The plate was shaken thoroughly, resulting in a “compound dilution plate/10% DMSO”. The compound dilution plate(s) were discarded at the end of the working day. For the assays (see below), 5 μl solution from each well of the compound dilution plate were transferred into the assay plates. The final volume of the assay was 50 μl. All compounds were tested at 10 final assay concentrations in the range from 1×10^−05 M to 3×10^−10 M. The final DMSO concentration in the reaction cocktails was 1% in all cases. All protein kinases provided by ProQinase were expressed in Sf9 insect cells or in E. coli as recombinant GST-fusion proteins or His-tagged proteins, either as full-length or enzymatically active fragments. All kinases were produced from human cDNAs and purified by either GSH affinity chromatography or immobilized metal affinity chromatography. The purity of the protein kinases was examined by SDS-PAGE/Coomassie staining, the identity was checked by mass spectroscopy. Kinases from external vendors, Carna Biosciences Inc.; Invitrogen Corp.; and Millipore Corp., were expressed, purified and quality-controlled by virtue of the vendors readings. A radiometric protein kinase assay (33PanQinase® Activity Assay) was used for measuring the kinase activity of the 28 protein kinases. All kinase assays were performed in 96-well FlashPlates™ from PerkinElmer (Boston, MA, USA) in a 50 μl reaction volume. The reaction cocktails were incubated at 30° C. for 60 minutes. The reaction was stopped with 50 μl of 2% (v/v) H3PO4, plates were aspirated and washed two times with 200 μl 0.9% (w/v) NaCl. Incorporation of ^33Pi was determined with a microplate scintillation counter (Microbeta, Wallac). All assays were performed with a BeckmanCoulter/SAGIAN™ Core System. As part of the data evaluation the low control value from a particular plate was subtracted from the high control value as well as from all 80 “compound values” of the corresponding plate. The residual activity (in %) for each well of a particular plate was calculated by using the following formula: Res. Activity (%)=100×[(cpm of compound−low control)/(high control−low control)].

[3] = target: T2, 28 CDKs family protein kinases (Homo sapiens, UniProt P06493); details: read-out: CDK7 selectivity profile in CDKs family, IC50
T2 construct: purchased ProQinase GmbH; host or cells: Sf9 insect cells or E. coli
Experimental: as §1

[4] = target: T3, 28 CDKs family protein kinases (Homo sapiens, UniProt Q00534); details: read-out: CDK7 selectivity profile in CDKs family, IC50
T3 construct: purchased ProQinase GmbH; host or cells: Sf9 insect cells or E. coli
Experimental: as §1

[5] = target: T4, 28 CDKs family protein kinases (Homo sapiens, UniProt Q07002); details: CDK18/CycY; read-out: CDK7 selectivity profile in CDKs family, IC50
T4 construct: purchased ProQinase GmbH; host or cells: Sf9 insect cells or E. coli
Experimental: as §1

[6] = target: T5, 28 CDKs family protein kinases (Homo sapiens, UniProt Q9BWU1); details: CDK19/CycC; read-out: CDK7 selectivity profile in CDKs family, IC50
T5 construct: purchased ProQinase GmbH; host or cells: Sf9 insect cells or E. coli
T5 sequence (Q9BWU1 whole entry): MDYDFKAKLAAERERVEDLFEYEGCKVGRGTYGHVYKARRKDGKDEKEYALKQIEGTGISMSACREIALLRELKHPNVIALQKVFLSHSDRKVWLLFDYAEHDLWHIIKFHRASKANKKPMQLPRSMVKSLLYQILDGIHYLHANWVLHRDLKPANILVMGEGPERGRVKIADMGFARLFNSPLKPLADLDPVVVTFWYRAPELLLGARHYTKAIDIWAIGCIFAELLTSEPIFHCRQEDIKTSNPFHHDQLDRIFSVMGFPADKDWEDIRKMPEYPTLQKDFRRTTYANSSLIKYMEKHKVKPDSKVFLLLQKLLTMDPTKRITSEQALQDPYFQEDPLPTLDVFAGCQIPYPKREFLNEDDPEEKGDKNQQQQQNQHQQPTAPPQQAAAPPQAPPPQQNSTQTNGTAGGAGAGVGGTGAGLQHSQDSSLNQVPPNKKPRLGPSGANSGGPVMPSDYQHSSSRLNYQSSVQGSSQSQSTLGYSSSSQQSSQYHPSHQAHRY
T5 sequence (P24863 whole entry partner): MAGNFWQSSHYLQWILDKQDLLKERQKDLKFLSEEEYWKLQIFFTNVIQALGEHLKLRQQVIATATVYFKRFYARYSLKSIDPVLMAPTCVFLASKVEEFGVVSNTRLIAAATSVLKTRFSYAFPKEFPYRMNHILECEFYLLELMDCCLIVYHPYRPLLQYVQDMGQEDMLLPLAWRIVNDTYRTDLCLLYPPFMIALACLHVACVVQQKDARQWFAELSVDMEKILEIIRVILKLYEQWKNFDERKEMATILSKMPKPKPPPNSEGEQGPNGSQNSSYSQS
Experimental: as §1

[7] = target: T6, 28 CDKs family protein kinases (Homo sapiens, UniProt Q00537); details: CDK17/p35NCK; read-out: CDK7 selectivity profile in CDKs family, IC50
T6 construct: purchased ProQinase GmbH; host or cells: Sf9 insect cells or E. coli
Experimental: as §1

[8] = target: T7, 28 CDKs family protein kinases (Homo sapiens, UniProt P49336); details: CDK8/CycC; read-out: CDK7 selectivity profile in CDKs family, IC50
T7 construct: purchased ProQinase GmbH; host or cells: Sf9 insect cells or E. coli
Experimental: as §1

[9] = target: T8, 28 CDKs family protein kinases (Homo sapiens, UniProt P50613); details: CDK7/CycH/MAT1; read-out: CDK7 selectivity profile in CDKs family, IC50
T8 construct: purchased ProQinase GmbH; host or cells: Sf9 insect cells or E. coli
T8 sequence (P50613 whole entry): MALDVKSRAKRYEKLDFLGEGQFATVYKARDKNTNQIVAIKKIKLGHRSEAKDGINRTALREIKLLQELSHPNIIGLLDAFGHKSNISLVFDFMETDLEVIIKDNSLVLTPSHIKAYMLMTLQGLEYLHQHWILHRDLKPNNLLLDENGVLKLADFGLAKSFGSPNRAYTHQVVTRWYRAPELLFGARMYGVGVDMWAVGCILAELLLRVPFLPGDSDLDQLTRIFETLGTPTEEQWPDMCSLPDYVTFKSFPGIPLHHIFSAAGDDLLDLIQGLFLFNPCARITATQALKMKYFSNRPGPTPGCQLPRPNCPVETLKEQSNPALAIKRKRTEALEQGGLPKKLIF
T8 sequence (P51946 whole entry partner): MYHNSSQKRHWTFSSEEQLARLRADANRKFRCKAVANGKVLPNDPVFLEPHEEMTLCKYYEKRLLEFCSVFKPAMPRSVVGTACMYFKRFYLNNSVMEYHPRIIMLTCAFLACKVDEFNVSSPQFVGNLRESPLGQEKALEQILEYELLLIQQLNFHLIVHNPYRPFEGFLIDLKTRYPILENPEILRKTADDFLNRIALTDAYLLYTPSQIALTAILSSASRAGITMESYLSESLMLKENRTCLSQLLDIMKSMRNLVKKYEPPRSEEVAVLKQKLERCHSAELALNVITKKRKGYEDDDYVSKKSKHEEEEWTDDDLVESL
T8 sequence (P51948 whole entry partner): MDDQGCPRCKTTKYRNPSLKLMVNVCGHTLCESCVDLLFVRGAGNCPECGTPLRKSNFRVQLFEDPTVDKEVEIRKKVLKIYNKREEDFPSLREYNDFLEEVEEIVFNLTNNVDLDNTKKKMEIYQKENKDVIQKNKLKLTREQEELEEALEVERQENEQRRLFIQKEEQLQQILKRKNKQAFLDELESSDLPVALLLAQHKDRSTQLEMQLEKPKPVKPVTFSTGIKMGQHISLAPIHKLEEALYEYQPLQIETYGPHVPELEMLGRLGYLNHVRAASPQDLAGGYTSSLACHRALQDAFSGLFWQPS
Experimental: as §1

[10] = target: T9, 28 CDKs family protein kinases (Homo sapiens, UniProt Q00526); details: read-out: CDK7 selectivity profile in CDKs family, IC50
T9 construct: purchased ProQinase GmbH; host or cells: Sf9 insect cells or E. coli
Experimental: as §1

[11] = target: T10, 28 CDKs family protein kinases (Homo sapiens, UniProt P24941); details: read-out: CDK7 selectivity profile in CDKs family, IC50
T10 construct: purchased ProQinase GmbH; host or cells: Sf9 insect cells or E. coli
Experimental: as §1

[12] = target: T11, 28 CDKs family protein kinases (Homo sapiens, UniProt Q00536); details: CDK16/CycY; read-out: CDK7 selectivity profile in CDKs family, IC50
T11 construct: purchased ProQinase GmbH; host or cells: Sf9 insect cells or E. coli
T11 sequence (Q00536 whole entry): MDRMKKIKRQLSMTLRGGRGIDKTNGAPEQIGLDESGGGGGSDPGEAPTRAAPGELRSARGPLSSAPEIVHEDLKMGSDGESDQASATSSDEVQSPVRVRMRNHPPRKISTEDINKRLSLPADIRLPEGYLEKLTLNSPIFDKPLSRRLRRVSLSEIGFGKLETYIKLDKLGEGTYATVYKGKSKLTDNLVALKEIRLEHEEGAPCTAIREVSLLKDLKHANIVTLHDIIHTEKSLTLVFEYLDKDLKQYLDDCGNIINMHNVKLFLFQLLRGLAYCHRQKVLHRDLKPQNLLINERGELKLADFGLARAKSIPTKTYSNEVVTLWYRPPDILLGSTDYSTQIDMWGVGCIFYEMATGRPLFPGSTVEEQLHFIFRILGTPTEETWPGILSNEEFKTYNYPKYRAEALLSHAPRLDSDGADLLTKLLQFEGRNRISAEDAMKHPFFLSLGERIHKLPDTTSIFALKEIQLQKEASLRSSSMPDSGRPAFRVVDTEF
T11 sequence (Q8ND76 whole entry partner): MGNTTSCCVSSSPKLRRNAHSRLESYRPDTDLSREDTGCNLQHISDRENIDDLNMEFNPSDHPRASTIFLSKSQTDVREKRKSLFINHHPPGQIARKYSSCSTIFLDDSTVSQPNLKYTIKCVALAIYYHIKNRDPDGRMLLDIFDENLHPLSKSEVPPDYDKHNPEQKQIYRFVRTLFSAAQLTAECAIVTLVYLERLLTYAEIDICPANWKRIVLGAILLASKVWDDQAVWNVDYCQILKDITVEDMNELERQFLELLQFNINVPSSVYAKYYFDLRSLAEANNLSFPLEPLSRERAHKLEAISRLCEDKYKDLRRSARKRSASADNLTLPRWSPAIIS
Experimental: as §1

[13] = target: T12, 28 CDKs family protein kinases (Homo sapiens, UniProt P50750); details: read-out: CDK7 selectivity profile in CDKs family, IC50
T12 construct: purchased ProQinase GmbH; host or cells: Sf9 insect cells or E. coli
Experimental: as §1

[14] = target: T13, 28 CDKs family protein kinases (Homo sapiens, UniProt Q14004)
T13 construct: purchased ProQinase GmbH; host or cells: Sf9 insect cells or E. coli
T13 sequence (Q14004 whole entry): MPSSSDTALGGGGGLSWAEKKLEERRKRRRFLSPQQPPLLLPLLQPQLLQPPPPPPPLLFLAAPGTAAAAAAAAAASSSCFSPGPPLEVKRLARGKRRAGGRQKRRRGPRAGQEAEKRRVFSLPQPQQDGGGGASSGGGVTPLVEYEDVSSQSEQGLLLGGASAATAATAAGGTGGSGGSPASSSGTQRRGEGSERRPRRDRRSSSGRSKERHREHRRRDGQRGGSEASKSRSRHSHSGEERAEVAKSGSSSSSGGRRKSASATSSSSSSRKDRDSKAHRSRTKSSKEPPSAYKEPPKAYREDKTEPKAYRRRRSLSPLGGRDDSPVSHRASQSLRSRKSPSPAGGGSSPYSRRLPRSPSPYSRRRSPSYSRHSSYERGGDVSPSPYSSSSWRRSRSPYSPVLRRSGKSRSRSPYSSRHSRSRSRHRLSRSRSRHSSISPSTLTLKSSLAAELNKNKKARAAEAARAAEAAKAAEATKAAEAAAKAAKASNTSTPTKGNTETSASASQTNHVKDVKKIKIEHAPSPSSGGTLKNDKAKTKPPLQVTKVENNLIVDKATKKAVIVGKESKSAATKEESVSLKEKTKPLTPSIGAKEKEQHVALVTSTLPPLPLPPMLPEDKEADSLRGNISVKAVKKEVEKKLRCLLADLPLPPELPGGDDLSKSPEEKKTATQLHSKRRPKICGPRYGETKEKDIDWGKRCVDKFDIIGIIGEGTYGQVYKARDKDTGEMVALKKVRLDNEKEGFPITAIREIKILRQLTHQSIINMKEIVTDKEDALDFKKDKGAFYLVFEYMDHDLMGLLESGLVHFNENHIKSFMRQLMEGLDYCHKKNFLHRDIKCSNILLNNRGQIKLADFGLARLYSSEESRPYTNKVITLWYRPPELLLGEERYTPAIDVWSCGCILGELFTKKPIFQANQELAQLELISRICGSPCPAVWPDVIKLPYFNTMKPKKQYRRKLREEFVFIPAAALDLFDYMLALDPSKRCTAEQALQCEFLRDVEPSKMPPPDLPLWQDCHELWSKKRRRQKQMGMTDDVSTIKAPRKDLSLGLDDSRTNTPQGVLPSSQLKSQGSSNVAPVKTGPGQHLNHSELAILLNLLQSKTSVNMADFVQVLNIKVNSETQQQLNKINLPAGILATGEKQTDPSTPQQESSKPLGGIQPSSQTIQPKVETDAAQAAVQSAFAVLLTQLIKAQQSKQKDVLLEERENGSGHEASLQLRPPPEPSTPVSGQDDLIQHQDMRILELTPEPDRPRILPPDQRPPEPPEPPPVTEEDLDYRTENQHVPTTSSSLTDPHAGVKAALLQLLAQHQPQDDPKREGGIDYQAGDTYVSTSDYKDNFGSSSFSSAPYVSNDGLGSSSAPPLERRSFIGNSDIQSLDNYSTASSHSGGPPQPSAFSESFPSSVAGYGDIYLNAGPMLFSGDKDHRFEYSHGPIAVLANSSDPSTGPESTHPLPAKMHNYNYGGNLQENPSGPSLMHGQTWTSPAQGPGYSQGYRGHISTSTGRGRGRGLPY
T13 sequence (O75909 whole entry partner): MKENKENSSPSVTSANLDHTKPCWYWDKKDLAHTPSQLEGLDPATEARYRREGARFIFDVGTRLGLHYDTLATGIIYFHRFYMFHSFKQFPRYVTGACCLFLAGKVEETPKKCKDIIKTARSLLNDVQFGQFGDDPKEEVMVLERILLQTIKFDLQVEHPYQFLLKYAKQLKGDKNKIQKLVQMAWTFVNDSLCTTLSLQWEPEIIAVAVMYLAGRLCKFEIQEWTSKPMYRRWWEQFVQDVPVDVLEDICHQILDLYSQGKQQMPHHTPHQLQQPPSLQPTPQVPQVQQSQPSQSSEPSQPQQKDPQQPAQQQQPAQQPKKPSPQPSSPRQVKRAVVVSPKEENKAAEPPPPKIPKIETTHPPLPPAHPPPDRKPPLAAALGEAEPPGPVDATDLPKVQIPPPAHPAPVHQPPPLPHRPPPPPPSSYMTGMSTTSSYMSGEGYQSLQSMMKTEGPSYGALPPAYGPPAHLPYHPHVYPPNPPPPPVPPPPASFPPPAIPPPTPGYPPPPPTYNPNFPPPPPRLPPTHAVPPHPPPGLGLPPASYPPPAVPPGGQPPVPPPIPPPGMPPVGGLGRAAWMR
Experimental: as §1

[15] = target: T14, 28 CDKs family protein kinases (Homo sapiens, UniProt Q9NYV4); details: CDK12wt/CycK; read-out: CDK7 selectivity profile in CDKs family, IC50
T14 construct: purchased ProQinase GmbH; host or cells: Sf9 insect cells or E. coli
Experimental: as §1

[16] = target: T15, 28 CDKs family protein kinases (Homo sapiens, UniProt P11802); details: read-out: CDK7 selectivity profile in CDKs family, IC50
T15 construct: purchased ProQinase GmbH; host or cells: Sf9 insect cells or E. coli
Experimental: as §1

Q: With `CC(C)c1cnn2c(NCc3ccccc3-c3nccc4cc(NC(=O)/C=C/CN(C)C)ccc34)nc(N3CCC(N)CC3)nc12` [Compound 11] as the molecule, how does the IC50 [1] read?
A: > 10 µM

Q: What about the IC50 ([2]; CDK20/CycH) of the same molecule?
A: > 10 µM

Q: What about the IC50 ([2]; CDK20/CycT1) of the same molecule?
A: > 10 µM

Q: What about the IC50 ([3]; CDK1/CycA2) of the same molecule?
A: > 10 µM

Q: And the IC50 ([3]; CDK1/CycB1)?
A: > 10 µM

Q: And the IC50 ([3]; CDK1/CycE1)?
A: > 10 µM

Q: And the IC50 ([4]; CDK6/CycD1)?
A: > 10 µM

Q: And the IC50 ([4]; CDK6/CycD2)?
A: > 10 µM

Q: What about the IC50 ([4]; CDK6/CycD3) of the same molecule?
A: > 10 µM

Q: What about the IC50 [5] of the same molecule?
A: > 10 µM

Q: What about the IC50 [6] of the same molecule?
A: > 10 µM

Q: What about the IC50 [7] of the same molecule?
A: > 10 µM

Q: What about the IC50 [8] of the same molecule?
A: > 10 µM

Q: What about the IC50 [9] of the same molecule?
A: 0.025 µM

Q: And the IC50 ([10]; CDK3/CycC)?
A: > 10 µM

Q: And the IC50 ([10]; CDK3/CycE1)?
A: > 10 µM

Q: What about the IC50 ([11]; CDK2/CycA2) of the same molecule?
A: > 10 µM

Q: What about the IC50 ([11]; CDK2/CycD1) of the same molecule?
A: > 10 µM

Q: And the IC50 ([11]; CDK2/CycE1)?
A: > 10 µM

Q: And the IC50 [12]?
A: > 10 µM

Q: And the IC50 ([13]; CDK9/CycK)?
A: > 10 µM

Q: What about the IC50 ([13]; CDK9/CycT1) of the same molecule?
A: > 10 µM

Q: What about the IC50 [14] of the same molecule?
A: > 10 µM

Q: And the IC50 [15]?
A: > 10 µM

Q: What about the IC50 ([16]; CDK4/CycD1) of the same molecule?
A: > 10 µM

Q: And the IC50 ([16]; CDK4/CycD2)?
A: > 10 µM

Q: And the IC50 ([16]; CDK4/CycD3)?
A: > 10 µM
